Assay results from the supplement of paper PMC13380429.

Key:
Details in all cases: 72 h
HepG2 [1] = test: cell viability relative to DMSO; higher = less toxic
Calu-3 [2] = test: as above
Caco-2 [3] = test: as above
U2OS [4] = test: as above
Vero E6 [5] = test: as above
HepG2 [6] = test: relative viability EC50 (midpoint between 100% and the lowest measured viability); higher = less toxic
Calu-3 [7] = test: as above
Caco-2 [8] = test: as above
U2OS [9] = test: as above
Vero E6 [10] = test: as above
HepG2 [11] = test: drug sensitivity score (DSS) for viability; higher = more toxic; extreme values may be limits of the assay
Calu-3 [12] = test: as above
Caco-2 [13] = test: as above
U2OS [14] = test: as above
Vero E6 [15] = test: as above

SMILES | cell viability (HepG2 [1]; 1 nM) [%] | cell viability (HepG2 [1]; 10 nM) [%] | cell viability (HepG2 [1]; 100 nM) [%] | cell viability (HepG2 [1]; 1000 nM) [%] | cell viability (HepG2 [1]; 10000 nM) [%] | cell viability (Calu-3 [2]; 1 nM) [%] | cell viability (Calu-3 [2]; 10 nM) [%] | cell viability (Calu-3 [2]; 100 nM) [%] | cell viability (Calu-3 [2]; 1000 nM) [%] | cell viability (Calu-3 [2]; 10000 nM) [%] | cell viability (Caco-2 [3]; 1 nM) [%] | cell viability (Caco-2 [3]; 10 nM) [%] | cell viability (Caco-2 [3]; 100 nM) [%] | cell viability (Caco-2 [3]; 1000 nM) [%] | cell viability (Caco-2 [3]; 10000 nM) [%] | cell viability (U2OS [4]; 1 nM) [%] | cell viability (U2OS [4]; 10 nM) [%] | cell viability (U2OS [4]; 100 nM) [%] | cell viability (U2OS [4]; 1000 nM) [%] | cell viability (U2OS [4]; 10000 nM) [%] | cell viability (Vero E6 [5]; 1 nM) [%] | cell viability (Vero E6 [5]; 10 nM) [%] | cell viability (Vero E6 [5]; 100 nM) [%] | cell viability (Vero E6 [5]; 1000 nM) [%] | cell viability (Vero E6 [5]; 10000 nM) [%] | relative viability EC50 (HepG2 [6]) [µM] | relative viability EC50 (Calu-3 [7]) [µM] | relative viability EC50 (Caco-2 [8]) [µM] | relative viability EC50 (U2OS [9]) [µM] | relative viability EC50 (Vero E6 [10]) [µM] | drug sensitivity score (HepG2 [11]) | drug sensitivity score (Calu-3 [12]) | drug sensitivity score (Caco-2 [13]) | drug sensitivity score (U2OS [14]) | drug sensitivity score (Vero E6 [15])
NC(=O)c1ccc2[nH]ccc2c1 [SD-169] | 93.7 | 92.4 | 102 | 102 | 83.4 | 103 | 87.6 | 98.5 | 99.6 | 101 | 94.7 | 90.8 | 100 | 92.9 | 99.2 | 104 | 104 | 102 | 98.9 | 101 | 98.8 | 99.1 | 92.6 | 97.6 | 89.8 | > 10 | > 10 | > 10 | > 10 | > 10 | 0.3 | 0 | 0 | 0 | 0
O=C(O)CCc1cc(C(=O)c2ccc(OC3CCCC3)cc2O)ccc1OCc1ccc2c(O)noc2c1 [T-5224] | 97.9 | 93 | 105 | 102 | 96.4 | 97.3 | 106 | 92.3 | 93.9 | 100 | 106 | 99.2 | 101 | 93.6 | 94 | 97.6 | 99.2 | 95.9 | 99.9 | 96.4 | 93.9 | 101 | 97.2 | 102 | 94.9 | > 10 | > 10 | > 10 | > 10 | > 10 | 0 | 0 | 0 | 0 | 0
O=[N+]([O-])c1cn2c(n1)OC[C@@H](OCc1ccc(-c3ccc(OC(F)(F)F)cc3)nc1)C2 [TBA-354] | 92.9 | 108 | 89.4 | 110 | 105 | 101 | 103 | 106 | 96.1 | 98.5 | 99.5 | 95.4 | 103 | 92.1 | 92.9 | 98.3 | 98.8 | 102 | 100 | 98.8 | 96.7 | 101 | 93.6 | 99 | 104 | > 10 | > 10 | > 10 | > 10 | > 10 | 0 | 0 | 0 | 0 | 0
COc1cc(OC)cc(C(=O)NNC(=O)Nc2cccc3ccccc23)c1 [TC-O-9311] | 100 | 101 | 92.3 | 90.9 | 98.7 | 84.2 | 92.1 | 93.6 | 97.8 | 107 | 96.3 | 112 | 101 | 102 | 88 | 99 | 100 | 98.3 | 101 | 98.4 | 102 | 102 | 94.9 | 94.1 | 96 | > 10 | > 10 | > 10 | > 10 | > 10 | 0 | 0 | 0 | 0 | 0
CC(C)C(=O)SCCCCC[C@H](NC(=O)OC(C)(C)C)C(=O)NC12CC3CC(CC(C3)C1)C2 [TCS-HDAC6-20b] | 101 | 99.3 | 101 | 96.5 | 105 | 101 | 93.3 | 95.6 | 108 | 85.3 | 97.7 | 96.9 | 95.5 | 102 | 103 | 101 | 102 | 106 | 98.4 | 98.4 | 96.5 | 96.2 | 97 | 98.9 | 113 | > 10 | > 10 | > 10 | > 10 | > 10 | 0 | 0.1 | 0 | 0 | 0
CCN1/C(=C/C(C)=O)Sc2ccc(OC)cc21 [TG-003] | 98 | 96.9 | 93 | 93.2 | 87.2 | 99.2 | 105 | 106 | 96.8 | 102 | 98.9 | 92.9 | 96.6 | 99.2 | 95.4 | 106 | 98.7 | 96.9 | 104 | 102 | 98.9 | 98.6 | 99.1 | 93.5 | 93.7 | > 10 | > 10 | > 10 | > 10 | > 10 | 0.1 | 0 | 0 | 0 | 0
